In BindingDB's records for doi:10.1021/acsmedchemlett.0c00405 (University of Oxford, 2020) one finds EC50 data, which are given here for 15 molecules.

This assay is described as follows: Modulation of human utrophinA expressed in mouse H2K-mdx utrnA-luc cells assessed as upregulation of utrophin production after 24 hrs by luciferase reporter gene assay.

Bounds are passed on as bounds.

On to `CCP(=O)(OC)c1ccc2oc(-c3ccnc(OC(F)F)c3)nc2c1` (stereo not given), for which the EC50 was 309 nM.
Under `CCP(=O)(OC)c1ccc2nc(-c3ccccc3C(F)F)oc2c1` (stereo not given) stands 500 nM; under `CCP(=O)(OC)c1ccc2oc(-c3ccccc3C(F)F)nc2c1` (stereo not given), 1260 nM; under `CCP(=O)(OC)c1ccc2nc(-c3cncc(C(F)(F)F)c3)oc2c1` (stereo not given), over 50000 nM.
For `CCP(=O)(OC)c1ccc2oc(-c3ccc(F)cc3C(F)F)nc2c1` (stereo not given), the EC50 amounted to 580 nM.
Regarding `CCP(=O)(OC)c1ccc2oc(-c3ccc4c(c3)OC(F)(F)O4)nc2c1` (stereo not given), the EC50 worked out at 530 nM.
Regarding `CCP(=O)(OC)c1ccc2nc(-c3cccc(OC(F)F)c3)oc2c1` (stereo not given), the EC50 was over 50000 nM.
The same measure for `CCP(=O)(OC)c1ccc2oc(-c3ccc(C(F)F)cc3)nc2c1` (stereo not given): 750 nM; for `CCP(=O)(OC)c1ccc2oc(-c3cncc(C(F)F)c3)nc2c1` (stereo not given): 5900 nM.
In the case of `CCP(=O)(OC)c1ccc2oc(-c3cccc(OC)c3)nc2c1` (stereo not given), the EC50 is 157 nM.
As for `CCP(=O)(OC)c1ccc2nc(-c3ccc(C(F)F)cc3)oc2c1` (stereo not given), the EC50 worked out at 1900 nM.
Consider `CCP(=O)(OC)c1ccc2oc(-c3cccc(OC(F)F)c3)nc2c1` (stereo not given), for which the concentration for a half-maximal effect (EC50) stood at 677 nM.
On to `CCP(=O)(OC)c1ccc2oc(-c3ccc(OC)cc3)nc2c1` (stereo not given), for which the EC50 turned out to be 510 nM.
Under `CCP(=O)(OC)c1ccc2oc(-c3cccc(C(F)F)c3)nc2c1` (stereo not given) stands 890 nM; under `CCP(=O)(OC)c1ccc2oc(-c3cncc(C(F)(F)F)c3)nc2c1` (stereo not given), 4170 nM.
